# Assay results reported in patent publication US12397031B2, “Lonicera japonica flower water extract-containing pharmaceutical composition for preventing or treating Helicobacter pylori infection” (GREEN CROSS WELLBEING CORPORATION, priority 2018, dated 2025).
# How the values were obtained:
# [1] = system: Helicobacter pylori (ATCC43504) strain; assay: Antibacterial activity on Helicobacter pylori, paper disc clear zone; assay type: cell-based; conditions: 20 μl on 6 mm paper disc, 72 hours, pure inhibition zone
# Procedure: A Helicobacter pylori (ATCC43504) strain was smeared in a Brucella Agar medium containing 10% horse serum, and cultured for 3 days in an incubator of 37° C. and 10% CO: conditions. […] The Examples and Comparative Examples were cultured for 72 hours in an incubator of 37° C. and 10% CO: conditions, and then diameters of generated clear zones were measured and diameters of pure inhibition zones removing perforated diameters were shown in Table 3.
# Helicobacter pylori = assay: Selective antibacterial effect on Helicobacter pylori versus Escherichia coli and Staphylococcus aureus; assay type: cell-based; conditions: under the same condition
smiles,measurement,setting,value
"C=C[C@H]1[C@H](O[C@@H]2O[C@H](CO)[C@@H](O)[C@H](O)[C@H]2O)OC=C(C(=O)OC)[C@H]1CC(=O)O [Secoxyloganin, secoxyloganin]",Clear zone (mm),[1]; 0.1 mg/ml,5 mm
same,Clear zone (mm),[1]; 1 mg/ml,9 mm
same,Clear zone (mm),[1]; 10 mg/ml,13 mm
same,selective antibacterial effect on Helicobacter pylori than the antibacterial effect on Escherichia coli and Staphylococcus aureus,Helicobacter pylori,≥ 20 times
